Values after ≈ are worked out from the molar mass of the structure shown. Structures can show the parent of a compound that is named as a salt.

Experimental findings from US5068247A, “2-aminopentanoic acid compounds and their use as immunosuppressants” (priority 1989, dated 1991) are described below.

Assay [1] deals with mouse allogenic MLR (BALB/c mouse spleen cells stimulated with C57BL/6 mouse spleen cells). The assay can be described thus: mouse allogenic mixed lymphocyte reaction (MLR), 3H-thymidine uptake. The class given is cell-based. On the procedure: The immunosuppressive activity of the compounds was assayed on the basis of mouse allogenic mixed lymphocyte reaction (hereinafter sometimes abbreviated as MLR). Mouse allogenic MRL was carried out using a mixed culture of BALB/c mouse (H-2^d) spleen cells as the responder cells and mitomycin C-treated C57BL/6 ([…]) mouse spleen cells as the stimulator cells in equal amounts.
The responder cells were prepared as follows:
The spleen was resected from 5- to 6-week-old BALB/c mice, and single cell suspension of spleen cells was prepared by using the RPMI1640 culture medium (containing 60 μg/ml of kanamycin sulfate, 2 mM of L-glutamine, 10 mM of N-2-hydroxyethylpiperazine-N'-2-ethanesulphonate (HEPES) and 0.1% sodium hydrogencarbonate) to which heat-inactivated fetal calf serum (hereinafter sometimes abbreviated as FCS) had been added to 5%. After hemolytic treatment, the cell suspension was adjusted to a concentration of 10^7 cells/ml with the RPMI1640 culture medium supplemented with 10^-4 M 2-mercapto-ethanol and 20% FCS, and was used as the responder cell suspension.
The stimulator cells were prepared as follows: The spleen was resected from 5- to 6-week-old male C57BL/6 mice, and a single cell suspension of spleen cells was prepared by using the RPMI1640 culture medium. After hemolytic treatment, the cells were treated with 40 μg/ml of mitomycin C at 37° C. for 60 minutes. After washing three times, the cell suspension was adjusted to a concentration of 10^7 cells/ml with the RPMI1640 culture medium supplemented with 10^-4 M 2-mercapto-ethanol and 20% FCS, and was used as the stimulator cell suspension.
The blastogenesis of lymphocytes was assayed using ^3 H-thymidine uptake as an index. That is, after termination of culture, 18.5 KBq/well of ^3 H-thymidine was added thereto and the suspension was cultured for 4 hours. Cells were harvested by a cell-harvester, and the radioactivity incorporated into the cells was determined by a liquid scintillation counter, which was used as an index of blastogenesis of lymphocytes in the mouse allogenic MLR. The suppression of the mouse allogenic MLR was evaluated by calculating the percent suppression by the following formula.
The test substance dissolved in methanol was diluted with the RPMI1640 culture medium and put to use.

Assay [2] concerns IL-2 production in PHA-stimulated mouse spleen cells. The assay can be described thus: suppression of IL-2 production in PHA-stimulated mouse spleen cells. The class given is cell-based. On the procedure:
(§1) The suppression of IL-2 and IL-3 production in the mitogen-stimulated mouse spleen cells was examined as follows:
(§2) The spleen was resected from 5- to 8-week-old male C3H/HeN mice, and a single cell suspension of spleen cells was prepared by using the RPMI1640 culture medium. After hemolytic treatment, the concentration of the suspension was adjusted to 10^7 cells/ml by using the RPMI1640 culture medium supplemented with 20% FCS, to which 10 μg/ml of phytohemagglutinin (PHA) was added as mitogen. […] After termination of culture, the supernatant was collected and used as the culture supernatant of PHA-stimulated mouse spleen cells.
The IL-2 activity in the culture supernatant of PHA-stimulated mouse spleen cells was assayed as follows:
IL-2 dependent mouse cell line CTLL-2 cells were suspended in the RPMI1640 culture medium supplemented with 30% FCS to the concentration of 2×10^5 cells/ml. One hundred μl of the cell suspension and 100 μl of the two-fold serial dilution of the culture supernatant of PHA-stimulated mouse spleen cells were added to a 96-well flat-bottomed microtest plate. […] The IL-2 activity is expressed in U/ml as the dilution at which the absorbancy measured by MTT method was 50% of the maximum.

Assay [3] deals with IL-3 production in PHA-stimulated mouse spleen cells. The assay is described as follows: suppression of IL-3 production in PHA-stimulated mouse spleen cells. The format is cell-based. On the procedure:
as §1, §2
The IL-3 activity was assayed as follows:
IL-3-dependent mouse cell line FDC-P2 cells were suspended in the RPMI1640 culture medium supplemented with 10% FCS to the concentration of 2×10^5 cells/ml. One hundred μl of the cell suspension and 100 μl of the two-fold serial dilution of the culture supernatant of PHA-stimulated mouse spleen cells described above were added to a 96-well flat-bottomed microtest plate. […] The IL-3 activity is expressed in U/ml as the dilution at which the absorbancy measured by MTT method was 50% of the maximum.

The test system of assay [4] is allo-reactive cytotoxic T cells in spleen of EL4-immunized BALB/c mice. The assay is described as follows: suppression of allo-reactive cytotoxic T cells induced by immunization of mouse with allogenic cells. The class given is in vivo. The following applies: Table 9F. On the procedure:
Male 5- to 7-week-old BALB/c mice (H-2^d) were immunized with leukemia cell EL4 derived from C57BL/6 mice (H-2^b) (10^7 cells/mouse, intraperitoneal administration), and the test substance was administered intraperitoneally 5 times at the doses of 0.001 to 3 mg/kg/day or orally at the doses of 0.3 to 10 mg/kg/day from the day of immunization. Nine to ten days after immunization, the spleen was resected from the mice to prepare a single cell suspension and the suspension was used as effector cell suspension. The ^51 Cr-release assay was carried out in the same way as in Experiment Example 3, using EL4 cells as the target cells to measure the cytotoxic activity.
The activity of allo-reactive cytotoxic T cell is indicated by lytic unit (LU) per spleen. One lytic unit (LU) is defined as the number of effector cells required to cause 25% lysis of 5×10^3 target cells. At the same time, the body weight of mouse and number of spleen cells were also determined.

Assay [5] relates to allo-specific cytotoxic antibody in serum of EL4-immunized BALB/c mice. The assay can be described thus: suppression of allo-specific cytotoxic antibody production induced by allogenic cell immunization of mouse. The class given is in vivo. Here is the method:
Male 5- to 7-week-old BALB/c mice were immunized with leukemia cell EL4 derived from C57BL/6 mice (10^7 cells/mouse, intraperitoneal administration) in the same way as in Experiment Example 9, and the […] Nine to ten days after immunization, a serum was collected from the mice. Fifty μl of the two-fold serial dilution of the serum, 50 μl of a guinea pig complement and EL4 cell suspension labelled with ^51 Cr as the target cell (5×10^4 cells/ml, 100 μl) were together added to a 96-well microtest plate. After incubation at 37° C. for 1 hour, the amount of ^51 Cr released in the supernatant was measured, and the complement-dependent cytotoxicity was calculated by the following formula. [formula]
The value of allo-specific cytotoxic antibody determined as above was expressed by the titer calculated on the basis of the concentration at which the releasing amount of ^51 Cr was 50% of that of ^51 Cr-labelled target cells treated with 0.1 N HCl.

Setting [6] is: Mus musculus, 24 h, 0.001 μg/ml, read-out: Suppression.
The mark [7] stands for this setting: Mus musculus, 24 h, 0.01 μg/ml, read-out: Suppression.
[8] abbreviates: Mus musculus, 24 h, 0.1 μg/ml, read-out: Suppression.
Where [9] appears, read: Mus musculus, 24 h, 1 μg/ml, read-out: Suppression.
The mark [10] stands for this setting: 0.003 mg/kg/day iv × 9, Table 10F.
Where [11] appears, read: 0.01 mg/kg/day iv × 9, Table 10F.
Setting [12] is: 0.03 mg/kg/day ip × 5, Table 10E.
Setting [13] is: 0.03 mg/kg/day iv × 9, Table 10F.
Setting [14] is: 0.1 mg/kg/day ip × 5, Table 10E.
[15] abbreviates: 0.1 mg/kg/day iv × 9, Table 10F.
Where [16] appears, read: 0.3 mg/kg/day ip × 5, Table 10E.
The mark [17] stands for this setting: 0.3 mg/kg/day iv × 9, Table 10F.

On to `N[C@](CO)(C(=O)O)[C@@H](O)[C@H](O)CCO` [Example 6], for which the 3H-thymidine uptake in assay [1] (0.0001 μg/ml, Table 1A) is reported as 16771 cpm; in assay [1] (0.001 μg/ml, Table 1A), 13692 cpm; in assay [1] (0.01 μg/ml, Table 1A) it was 13806 cpm; in assay [1] (0.1 μg/ml, Table 1A), 14508 cpm; in assay [1] (1 μg/ml, Table 1A) it was 7545 cpm. Further, the inhibition at 0.0001 µg/mL in assay [1] (Mus musculus, Lymphocyte, 0.0001 μg/ml, Table 1A, read-out: Suppression) was found to be 9.9%. Besides, the inhibition at 0.001 µg/mL was found to be 18.5% in assay [1] (Mus musculus, Lymphocyte, 0.001 μg/ml, Table 1A, read-out: Suppression); 6.7% in assay [2] (setting [6]); 2.9% in assay [3] (setting [6]). Also, the inhibition at 0.01 µg/mL in assay [1] (Mus musculus, Lymphocyte, 0.01 μg/ml, Table 1A, read-out: Suppression) turned out to be 27.5%; in assay [2] (setting [7]), 24.4%; in assay [3] (setting [7]), 4.5%. For the same compound, the inhibition at 0.1 µg/mL was determined as 23.4% in assay [1] (Mus musculus, Lymphocyte, 0.1 μg/ml, Table 1A, read-out: Suppression); 29.6% in assay [2] (setting [8]); 4.9% in assay [3] (setting [8]). Moreover, the inhibition at 1 µg/mL came out at 64.8% in assay [1] (Mus musculus, Lymphocyte, 1 μg/ml, Table 1A, read-out: Suppression); 38.5% in assay [2] (setting [9]); 18.4% in assay [3] (setting [9]). The IC50 in assay [1] (Mus musculus, Lymphocyte, read-out: 50%-inhibition concentration (IC50) in mouse allogenic MLR) came out at 0.045 µg/mL (≈ 0.215 µM). Also, the IL-2 activity amounted to 12.6 U/ml in assay [2] (0.001 μg/ml), 10.2 U/ml in assay [2] (0.01 μg/ml), 9.5 U/ml in assay [2] (0.1 μg/ml) and 8.3 U/ml in assay [2] (1 μg/ml). Moreover, the IL-3 activity in assay [3] (0.001 μg/ml) was 23.8 U/ml; in assay [3] (0.01 μg/ml), 23.4 U/ml; in assay [3] (0.1 μg/ml), 23.3 U/ml; in assay [3] (1 μg/ml), 20.0 U/ml.
Consider `CCCCCCCCCCCCC/C=C/C[C@@H](O)[C@H](O)[C@@](N)(CO)C(=O)O` [potassium salt of compound of Example 5], for which the 3H-thymidine uptake came to 5622 ± 898 cpm in assay [1] (0.0001 μg/ml, Table 1B); 4984 ± 3755 cpm in assay [1] (0.001 μg/ml, Table 1B); 1324 ± 16 cpm in assay [1] (0.01 μg/ml, Table 1B); 787 ± 257 cpm in assay [1] (0.1 μg/ml, Table 1B); 783 ± 28 cpm in assay [1] (1 μg/ml, Table 1B). Also, the Suppression in assay [1] (0.0001 μg/ml, Table 1B) is listed as 0%; in assay [1] (0.001 μg/ml, Table 1B) it was 7.5%; in assay [1] (0.01 μg/ml, Table 1B), 85.5%; in assay [1] (0.1 μg/ml, Table 1B) it was 97.0%; in assay [1] (1 μg/ml, Table 1B), 97.1%.
On to `CCCCCCCCCCCCC/C=C/C[C@@H](O)[C@H](O)[C@@](N)(CO)C(=O)O` [sodium salt of the compound of Example 5], for which the “suppressive activity of the sodium salt relative to that of the compound of Example 5” value in assay [1] (Table 1B) is reported as “almost the equivalent suppressive activity”. In addition, in assay [4], the “induction of allo-reactive cytotoxic T cells, sodium salt relative to the compound of Example 5 (in words)” value is recorded as “suppressive activity almost equivalent to that of the compound of Example 5 other than sodium salt”. The “Allogenic cell-specific antibody in serum, suppression” value in assay [5] (setting [10]) is 6.0%; in assay [5] (setting [11]) it was 39.4%; in assay [5] (setting [12]), 50.3%; in assay [5] (setting [13]), 68.5%; in assay [5] (setting [14]), 73.5%; in assay [5] (setting [15]), 84.1%. The “Allogenic cell-specific antibody in serum, suppression” value in assay [5] (setting [16]) is reported as 88.9%; in assay [5] (setting [17]), 81.7%. Moreover, the “Allogenic cell-specific antibody in serum, titer” value is listed as 236 ± 76 in assay [5] (setting [10]); 152 ± 27 in assay [5] (setting [11]); 94 ± 14 in assay [5] (setting [12]); 79 ± 50 in assay [5] (setting [13]); 50 ± 4 in assay [5] (setting [14]); 40 ± 23 in assay [5] (setting [15]). The “Allogenic cell-specific antibody in serum, titer” value in assay [5] (setting [16]) is given as 21 ± 8; in assay [5] (setting [17]), 46 ± 11. Moreover, the “production of allo-specific cytotoxic antibody, sodium salt relative to the compound of Example 5 (in words)” value in assay [5] (Table 10E) was “suppressive activity almost equivalent to that of the compound of Example 5 other than sodium salt”.
